Values of other authors as cited in patent US10711043B2, “Compositions and vaccines comprising vesicles and methods of using the same” (priority 2013, dated 2020).

For `COc1cc2cc(c1Cl)N(C)C(=O)C[C@H](OC(=O)[C@H](C)N(C)C(C)=O)[C@]1(C)O[C@H]1[C@H](C)[C@@H]1C[C@@](O)(NC(=O)O1)[C@H](OC)/C=C/C=C(\C)C2` [Maytansine, maytansine], the solubility is given as “insoluble in water and most solvents”.
